For the experiment, the target named is Acetyl-CoA carboxylase 2 (Homo sapiens, UniProt O00763). Put plainly: Spectrophotometric 384 Well Assay: Malonyl CoA formation by acetyl CoA carboxylases is stoichometrically linked to the consumption of ATP. ACC2 activity is measured in a NADH-linked kinetic method measuring ADP generated during the ACC reaction using a coupled lactate dehydrogenase/pyruvate kinase reaction.For biological testing, a human ACC2 construct which lacks the 128 amino acids at the N-terminus for increased solubility (nt 385-6966 in Genbank entry AJ575592) is cloned. The protein is then expressed in insect cells using a baculoviral expression system. Protein purification is performed by anion exchange.All compounds are dissolved in dimethyl sulfoxide (DMSO) to a concentration of 10 mM.Assay reactions are then carried out in 384-well plates, with hACC2 in an appropriate dilution and at final assay concentrations (f.c.) of 100 mM Tris (pH 7.5), 10 mM trisodium citrate, 25 mM KHCO3, 10 mM MgCl2, 0.5 mg/mL BSA, 3.75 mM reduced L-glutathione, 15 U/mL lactate dehydrogenase, 0.5 mM phosphoenolpyruvate.
Sequence of Acetyl-CoA carboxylase 2 (O00763 whole entry): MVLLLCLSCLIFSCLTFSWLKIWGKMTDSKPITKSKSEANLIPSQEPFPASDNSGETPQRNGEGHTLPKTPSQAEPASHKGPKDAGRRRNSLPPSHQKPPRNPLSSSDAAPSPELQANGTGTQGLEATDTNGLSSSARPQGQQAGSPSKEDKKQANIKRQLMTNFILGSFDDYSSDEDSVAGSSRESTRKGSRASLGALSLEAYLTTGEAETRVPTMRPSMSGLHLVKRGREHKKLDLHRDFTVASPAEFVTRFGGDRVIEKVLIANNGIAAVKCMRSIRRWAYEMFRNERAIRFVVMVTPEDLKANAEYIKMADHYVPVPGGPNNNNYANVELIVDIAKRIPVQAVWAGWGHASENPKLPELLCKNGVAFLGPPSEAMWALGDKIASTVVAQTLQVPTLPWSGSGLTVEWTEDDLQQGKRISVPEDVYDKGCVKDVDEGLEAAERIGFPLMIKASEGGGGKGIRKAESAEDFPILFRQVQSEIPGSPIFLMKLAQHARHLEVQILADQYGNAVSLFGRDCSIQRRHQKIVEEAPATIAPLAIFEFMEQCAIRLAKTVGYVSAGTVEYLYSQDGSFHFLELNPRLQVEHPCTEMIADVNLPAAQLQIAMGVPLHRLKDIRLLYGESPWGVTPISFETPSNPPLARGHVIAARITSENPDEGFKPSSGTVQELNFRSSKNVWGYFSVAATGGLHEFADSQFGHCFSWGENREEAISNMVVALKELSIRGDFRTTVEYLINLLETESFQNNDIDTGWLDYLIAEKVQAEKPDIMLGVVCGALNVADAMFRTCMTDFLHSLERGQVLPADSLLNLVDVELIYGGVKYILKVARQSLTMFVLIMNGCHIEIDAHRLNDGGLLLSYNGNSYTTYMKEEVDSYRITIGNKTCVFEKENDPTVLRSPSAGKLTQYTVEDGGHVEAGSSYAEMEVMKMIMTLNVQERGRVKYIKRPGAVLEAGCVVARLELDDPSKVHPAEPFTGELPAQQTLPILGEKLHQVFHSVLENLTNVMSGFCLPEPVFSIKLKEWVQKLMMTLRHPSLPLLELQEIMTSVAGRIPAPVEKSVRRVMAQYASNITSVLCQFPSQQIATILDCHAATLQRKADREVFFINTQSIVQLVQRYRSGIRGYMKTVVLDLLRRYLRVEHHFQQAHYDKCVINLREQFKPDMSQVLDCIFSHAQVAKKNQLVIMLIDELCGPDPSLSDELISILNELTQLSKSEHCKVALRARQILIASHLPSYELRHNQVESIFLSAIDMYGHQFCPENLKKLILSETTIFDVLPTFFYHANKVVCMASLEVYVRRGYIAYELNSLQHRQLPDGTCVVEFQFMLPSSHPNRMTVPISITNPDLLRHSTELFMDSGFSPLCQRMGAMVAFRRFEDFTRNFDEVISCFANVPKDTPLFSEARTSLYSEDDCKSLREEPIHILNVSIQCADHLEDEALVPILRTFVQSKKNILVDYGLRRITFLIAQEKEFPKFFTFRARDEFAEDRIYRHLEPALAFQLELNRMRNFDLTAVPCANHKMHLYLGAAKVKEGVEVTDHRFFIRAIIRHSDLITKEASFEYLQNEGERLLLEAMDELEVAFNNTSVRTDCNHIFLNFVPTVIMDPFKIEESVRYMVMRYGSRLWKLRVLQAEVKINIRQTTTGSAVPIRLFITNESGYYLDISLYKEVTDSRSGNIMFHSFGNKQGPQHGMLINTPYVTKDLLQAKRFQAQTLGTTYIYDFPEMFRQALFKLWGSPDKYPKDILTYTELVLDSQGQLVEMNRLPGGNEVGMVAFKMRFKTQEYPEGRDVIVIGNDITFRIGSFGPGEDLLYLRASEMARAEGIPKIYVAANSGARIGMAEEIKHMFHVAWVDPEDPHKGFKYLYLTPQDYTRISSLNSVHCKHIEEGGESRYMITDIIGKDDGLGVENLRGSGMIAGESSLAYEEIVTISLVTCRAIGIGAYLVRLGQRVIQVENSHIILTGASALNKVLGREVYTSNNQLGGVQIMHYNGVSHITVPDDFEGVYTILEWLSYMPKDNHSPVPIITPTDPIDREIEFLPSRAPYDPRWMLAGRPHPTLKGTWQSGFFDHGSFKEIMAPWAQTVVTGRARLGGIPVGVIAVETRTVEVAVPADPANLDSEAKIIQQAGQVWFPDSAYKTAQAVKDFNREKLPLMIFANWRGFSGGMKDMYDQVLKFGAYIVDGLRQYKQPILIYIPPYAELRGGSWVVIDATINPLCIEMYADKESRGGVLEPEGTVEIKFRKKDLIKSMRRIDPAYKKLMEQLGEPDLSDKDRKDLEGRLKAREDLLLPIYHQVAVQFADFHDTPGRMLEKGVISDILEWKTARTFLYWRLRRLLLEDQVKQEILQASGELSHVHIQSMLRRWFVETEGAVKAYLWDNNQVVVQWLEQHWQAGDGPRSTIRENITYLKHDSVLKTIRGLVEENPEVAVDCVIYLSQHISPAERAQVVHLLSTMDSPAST
For orientation: IC50 means the midpoint of a concentration-inhibition curve. Low readings indicate greater potency, high ones weaker potency. `CCOc1ccc(C#Cc2ccc(CC(C)NC(=O)CC3CC3)cc2)cc1` (centres undefined) showed an IC50 of 0.79 µM. Take `CC(=O)NC(C)Cc1ccc(C#Cc2ccc(C(=O)NCC(C)C)cc2)cc1` (centres undefined): the midpoint of inhibition, the IC50, lay at 4.2 µM. Regarding `CC(=O)NC(C)Cc1ccc(C#Cc2cccc(C(=O)N3CCC3)c2)cc1` (centres undefined), the IC50 is 2.1 µM.

`CC(=O)NC(C)Cc1ccc(C#Cc2ccnc(NCC(F)F)n2)cc1` (centres undefined) registered an IC50 of 9.9 µM. Against the preceding compound, the IC50 is about 4.7-fold higher.

(Values after ChEMBL document CHEMBL3639333, “Compounds, pharmaceutical compositions and uses thereof” (2014).)
